These results are taken from BindingDB's records for doi:10.1080/14756360701408754 (Pharmaceutical Research Centre, 2008).

For the experiment, the target named is T1, Seed linoleate 13S-lipoxygenase-1 (Glycine max, UniProt P08170).
T1 sequence (P08170 whole entry): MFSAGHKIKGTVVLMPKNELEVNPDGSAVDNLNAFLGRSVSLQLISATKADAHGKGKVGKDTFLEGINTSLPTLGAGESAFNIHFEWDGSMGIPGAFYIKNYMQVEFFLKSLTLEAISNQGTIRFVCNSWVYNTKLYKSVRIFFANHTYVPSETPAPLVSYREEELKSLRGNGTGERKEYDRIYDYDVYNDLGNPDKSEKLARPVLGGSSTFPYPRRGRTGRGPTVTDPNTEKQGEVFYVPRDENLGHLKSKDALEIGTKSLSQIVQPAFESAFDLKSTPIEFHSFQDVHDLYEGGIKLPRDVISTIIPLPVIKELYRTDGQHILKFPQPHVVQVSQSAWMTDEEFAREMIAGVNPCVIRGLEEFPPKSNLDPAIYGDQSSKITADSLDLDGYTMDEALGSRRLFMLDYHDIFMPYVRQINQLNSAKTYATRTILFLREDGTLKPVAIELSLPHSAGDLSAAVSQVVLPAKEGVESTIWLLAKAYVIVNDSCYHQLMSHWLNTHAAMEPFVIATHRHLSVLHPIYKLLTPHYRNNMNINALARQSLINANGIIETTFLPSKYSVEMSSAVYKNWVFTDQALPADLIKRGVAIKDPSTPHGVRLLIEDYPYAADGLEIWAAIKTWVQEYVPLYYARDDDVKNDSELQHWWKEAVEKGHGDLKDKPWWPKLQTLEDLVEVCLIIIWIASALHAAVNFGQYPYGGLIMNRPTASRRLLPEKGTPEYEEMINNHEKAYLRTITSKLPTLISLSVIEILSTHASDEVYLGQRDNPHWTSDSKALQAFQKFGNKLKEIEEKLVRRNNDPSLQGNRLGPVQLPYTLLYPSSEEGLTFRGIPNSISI
The experiment can be described thus: Inhibition Assay. Conditions: pH 8; 25 °C. How it is done: In vitro liposygenase inhibition assay activity was measured by modifying the spectrophotometric method developed by Tappel. The compound was prepared in methanol at various concentrations ([…]). The inhibition by lipoxygenase activity by 50% (IC50) was determined by monitoring the effect of increasing concentrations of these compounds in the assays on the degree of inhibition.

Regarding `COc1ccc(C(C2C(=O)CC(C)(C)CC2=O)C2C(=O)CC(C)(C)CC2=O)cc1` [Tetraketone, 8], the IC50 (usually the concentration at which inhibition is half-maximal) was 21.3 µM.

With `CC1(C)CC(=O)C(C(c2ccccc2O)C2C(=O)CC(C)(C)CC2=O)C(=O)C1` [Tetraketone, 4], the IC50 worked out at 198 µM.

The compound `CC1(C)CC(=O)C(C(c2ccc(O)cc2)C2C(=O)CC(C)(C)CC2=O)C(=O)C1` [Tetraketone, 6] came in with an IC50 of 26.4 µM.

With `CC1(C)CC(=O)C(C(c2ccco2)C2C(=O)CC(C)(C)CC2=O)C(=O)C1` [Tetraketone, 21], the IC50 was found to be 51.5 µM.

For `CC1(C)CC(=O)C(C(c2ccc(/C(Br)=C/c3ccccc3)cc2)C2C(=O)CC(C)(C)CC2=O)C(=O)C1` [Tetraketone, 20], the half-maximal inhibitory concentration (IC50) was 35.4 µM.

`CC1(C)CC(=O)C(C(c2ccccc2)C2C(=O)CC(C)(C)CC2=O)C(=O)C1` [Tetraketone, 2] displayed an IC50 of 33 µM.

With `CCOc1ccc(C(C2C(=O)CC(C)(C)CC2=O)C2C(=O)CC(C)(C)CC2=O)cc1` [Tetraketone, 10], the IC50 came out at 30.8 µM.

Compound `Cc1ccc(C(C2C(=O)CC(C)(C)CC2=O)C2C(=O)CC(C)(C)CC2=O)cc1` [Tetraketone, 3] yielded an IC50 of 16.3 µM.

The compound `Cc1ccc(C(C2C(=O)CC(C)(C)CC2=O)C2C(=O)CC(C)(C)CC2=O)o1` [Tetraketone, 22] gave an IC50 of 12.5 µM.

As to `CC1(C)CC(=O)C(C(c2cccc(Br)c2)C2C(=O)CC(C)(C)CC2=O)C(=O)C1` [Tetraketone, 14], inhibition was half-maximal at 52.9 µM (IC50).

In the case of `CC1(C)CC(=O)C(C(c2ccc(O)c(Br)c2)C2C(=O)CC(C)(C)CC2=O)C(=O)C1` [Tetraketone, 15], half-maximal inhibition (IC50) was put at 27.1 µM.

Turning to `COc1ccc(C(C2C(=O)CC(C)(C)CC2=O)C2C(=O)CC(C)(C)CC2=O)c(OC)c1` [Tetraketone, 9], the midpoint of inhibition, the IC50, lay at 33.1 µM.

In turn, `CC1(C)CC(=O)C(C(c2ccc(/C=C/c3ccccc3)cc2)C2C(=O)CC(C)(C)CC2=O)C(=O)C1` [Tetraketone, 19] showed a concentration for half-maximal inhibition (IC50) of 7.8 µM.

In the case of `CN(C)c1ccc(C(C2C(=O)CC(C)(C)CC2=O)C2C(=O)CC(C)(C)CC2=O)cc1` [Tetraketone, 11], the IC50 worked out at 17.5 µM.

For `CC1(C)CC(=O)C(C(c2ccccc2[N+](=O)[O-])C2C(=O)CC(C)(C)CC2=O)C(=O)C1` [Tetraketone, 16], it took 191 µM to reach half-maximal inhibition (IC50).

Turning to `CC1(C)CC(=O)C(C(c2ccccc2Cl)C2C(=O)CC(C)(C)CC2=O)C(=O)C1` [Tetraketone, 12], the half-maximal inhibitory concentration (IC50) was determined as 28.4 µM.

`COc1ccccc1C(C1C(=O)CC(C)(C)CC1=O)C1C(=O)CC(C)(C)CC1=O` [Tetraketone, 7]: half-maximal inhibition (IC50) required 196 µM.
